Reference: paper PMC11500415, “Chemical inhibition of stomatal differentiation by perturbation of the master-regulatory bHLH heterodimer via an ACT-Like domain” (Nature Communications, 2024)
Where “and” joins values, the source holds several entries; their conditions need not be identical. Equal entries are not always repeated.

Assays:
[1] = target: T1, SCRM-SPCH heterodimer (Arabidopsis thaliana, UniProt Q700C7); assay: Y2H growth and quantitative α-galactosidase assay; type: cell-based; details: for a-galactosidase: yeast SPCH∆N+SCRM, individual replicates, listed as AYSJ929
T1 construct: truncated SPCH and FAMA proteins lacking their N-terminal domain were used in yeast; expressed in transfected cells; host or cells: yeast strain AH109
T1 sequence (Q700C7 98-364 limits assumed): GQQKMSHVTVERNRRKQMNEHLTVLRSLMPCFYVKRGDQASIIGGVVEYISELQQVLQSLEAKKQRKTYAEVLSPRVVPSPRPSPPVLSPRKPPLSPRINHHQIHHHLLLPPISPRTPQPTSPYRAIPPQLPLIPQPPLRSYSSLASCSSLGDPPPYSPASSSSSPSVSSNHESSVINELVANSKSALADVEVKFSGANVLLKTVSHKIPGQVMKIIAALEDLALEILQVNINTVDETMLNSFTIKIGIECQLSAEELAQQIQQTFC
Method: (§1) Y2H assays were performed using the Matchmaker^TM Two-Hybrid System (Clontech). Bait (pGBKT7) and prey (pGADT7) constructs were co-transformed into the yeast strain AH109 using Frozen-EZ Yeast Transformation II Kit (Zymo Research, T2001). The resulting transformants were spotted on SD ( − Leu, −Trp) and SD ( − Trp, −Leu, −His) selection media containing different concentrations of 3-amino-1,2,4-triazole (Sigma, A8056) as previously reported. Quantitative α-galactosidase assay was also performed according to manufactural instruction (Clontech). Briefly, the transformants were incubated in 2 ml SD medium with 0, 10, 50 100 μM Stomidazolone (3) or SIM3* (7) with rotary shake (220 rpm) at 30 °C overnight. The cultured media containing yeast were transferred to microtubes and centrifuged to obtain the supernatant. The colorimetric assay was performed by incubating 8 μL of supernatant with 24 μL Assay Buffer that contains 0.5 M sodium acetate (pH 4.5) (Nakalai tesque, 31137-25): 100 mM p-nitrophenyl α-D-Galactopyranoside Solution (Sigma N0877) = 2:1 (v/v) at 30 °C for 60 min, then terminated by adding 960 μL 1X Stop Solution (0.1 M sodium carbonate, Fujifilm Wako 195-01582). After OD410 was recorded, α-galactosidase units were calculated according to the protocol (Clontech, P3024-1).

[2] = target: T2, SCRM-MUTE heterodimer (Arabidopsis thaliana, UniProt Q9M8K6); assay: Y2H growth and quantitative α-galactosidase assay; type: cell-based; details: for a-galactosidase: yeast MUTE+SCRM, individual replicates, listed as AYSJ929
T2 construct: expressed in transfected cells; host or cells: yeast strain AH109
T2 sequence (Q9M8K6 1-202): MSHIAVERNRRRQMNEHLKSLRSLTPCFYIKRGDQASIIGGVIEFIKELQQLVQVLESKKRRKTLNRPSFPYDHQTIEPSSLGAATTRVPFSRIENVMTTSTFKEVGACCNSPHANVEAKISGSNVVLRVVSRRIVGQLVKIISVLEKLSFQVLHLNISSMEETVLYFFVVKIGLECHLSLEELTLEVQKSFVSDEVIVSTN
Method: as §1

[3] = target: T3, SCRM-FAMA heterodimer (Arabidopsis thaliana, UniProt Q56YJ8); assay: Y2H growth and quantitative α-galactosidase assay; type: cell-based; details: for a-galactosidase: yeast FAMA∆N+SCRM, individual replicates, listed as AYSJ929
T3 construct: truncated SPCH and FAMA proteins lacking their N-terminal domain were used in yeast; expressed in transfected cells; host or cells: yeast strain AH109
Method: as §1

[4] = target: T4, MUTE+AD (control yeast) (Arabidopsis thaliana, UniProt Q9M8K6); assay: Y2H quantitative α-galactosidase assay, control pair MUTE+AD; type: cell-based; details: individual replicates, listed as AYSJ929
T4 construct: expressed in transfected cells; host or cells: yeast strain AH109
T4 sequence (Q9M8K6 1-202): T2 sequence (Q9M8K6 1-202)
Description: Supplement 41467_2024_53214_MOESM7_ESM.xlsx, sheet "Fig.6b" | column: a-galactosidase [milliunits /(ml x cell)]

[5] = Stability in aqueous conditions by LC/MS; type: physicochemical
Method: Next, to directly address the stability of Stomidazolone in the aqueous condition we used for our bioassays, we performed liquid chromatography-mass spectrometry (LC/MS) (Supplementary Fig. 4). Stomidazolone was incubated in the 1/2 MS liquid medium (pH 5.7) at room temperature for 48 hours. […] Additionally, we tested Stomidazolone’s stability in phosphate buffer (pH 7.0).
Stomidazolone in 1/2 MS liquid media (pH 5.7) or phosphate buffer (pH 7.0) was detected by LC (Agilent 1200, Agilent Technologies, Santa Clara, USA) coupled to a single quadrupole mass spectrometer (Agilent 6130) equipped with an APCI-ES source. For the stability assay of Stomidazolone, the analytical samples were prepared as follows: 100 μL 5 mM Stomidazolone in DMSO was diluted with 900 μL 1/2MS (pH5.7) or 50 mM Phosphate buffer (pH 7.0). The Stomidazolone solutions were incubated at room temperature with rotating. At 0 or 48 hr after incubation, the 10 μL of solution were collected, diluted with water: acetonitrile;= 50:50, and applied to LC/MS. […] The mobile phase consisted of 5 mM ammonium formate: acetonitrile = 80:20 at a flow rate of 0.6 mL/min. in isocratic mode, and detected by mass spectrometry (MS). […] The electrospray ionization mass spectra (ESI-MS) recorded in the mass-to-charge ratio range from m/z 80–1000 was collected. […]

T3 sequence (Q56YJ8 190-414, one chain of several): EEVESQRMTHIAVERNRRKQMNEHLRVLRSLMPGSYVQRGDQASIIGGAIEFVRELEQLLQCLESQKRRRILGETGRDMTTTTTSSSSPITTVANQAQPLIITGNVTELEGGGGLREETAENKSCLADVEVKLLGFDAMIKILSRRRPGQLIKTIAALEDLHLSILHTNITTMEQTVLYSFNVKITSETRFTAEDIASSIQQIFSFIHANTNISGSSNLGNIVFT

O=C1C(c2ccccc2)=NC(NS(=O)(=O)c2ccccc2)(c2ccccc2)N1S(=O)(=O)c1ccccc1 (centres unmarked) [Stomidazolone]
effect in quantitative α-galactosidase assay ([1]; 0, 10, 50, 100 μM): slightly less impact
effect on association in Y2H growth assay ([1]; 50 μM, 1 mM 3-AT, N-terminally truncated SPCH): diminishes
a-galactosidase ([1]; 10 µM): 5.51 milliunits /(ml x cell) and 5.69 milliunits /(ml x cell) and 5.47 milliunits /(ml x cell)
a-galactosidase ([1]; 50 µM): 5.02 milliunits /(ml x cell) and 5.49 milliunits /(ml x cell) and 5.63 milliunits /(ml x cell)
a-galactosidase ([1]; 100 µM): 5.62 milliunits /(ml x cell) and 5.13 milliunits /(ml x cell)
effect in quantitative α-galactosidase assay ([2]; 0, 10, 50, 100 μM): inhibits these stomatal bHLH heterodimers in a dose-dependent manner
effect on association in Y2H growth assay ([2]; 50 μM, 1 mM 3-AT): diminishes
a-galactosidase ([2]; 10 µM): 6.11 milliunits /(ml x cell) and 7.57 milliunits /(ml x cell) and 6.75 milliunits /(ml x cell)
a-galactosidase ([2]; 50 µM): 4.46 milliunits /(ml x cell) and 5.23 milliunits /(ml x cell) and 6.35 milliunits /(ml x cell)
a-galactosidase ([2]; 100 µM): 5.40 milliunits /(ml x cell) and 3.71 milliunits /(ml x cell) and 5.42 milliunits /(ml x cell)
effect in quantitative α-galactosidase assay ([3]; 0, 10, 50, 100 μM): inhibits these stomatal bHLH heterodimers in a dose-dependent manner
effect on association in Y2H growth assay ([3]; 50 μM, 1 mM 3-AT, N-terminally truncated FAMA): diminishes
a-galactosidase ([3]; 10 µM): 9.32 milliunits /(ml x cell) and 7.38 milliunits /(ml x cell) and 8.74 milliunits /(ml x cell)
a-galactosidase ([3]; 50 µM): 7.60 milliunits /(ml x cell) and 6.41 milliunits /(ml x cell) and 6.17 milliunits /(ml x cell)
a-galactosidase ([3]; 100 µM): 5.72 milliunits /(ml x cell) and 5.36 milliunits /(ml x cell) and 4.71 milliunits /(ml x cell)
a-galactosidase ([4]; 10 µM): 0.24 milliunits /(ml x cell) and 0.60 milliunits /(ml x cell) and 0.40 milliunits /(ml x cell)
a-galactosidase ([4]; 50 µM): 0.22 milliunits /(ml x cell) and 0.36 milliunits /(ml x cell) and 0.19 milliunits /(ml x cell)
a-galactosidase ([4]; 100 µM): 0.20 milliunits /(ml x cell) and 0.52 milliunits /(ml x cell) and 0.42 milliunits /(ml x cell)
stability in 1/2 MS liquid medium (LC/MS) ([5]; pH 5.7, room temperature, 48 hours): no lzx103 peak (2.13 min) was detected
stability in phosphate buffer (LC/MS) ([5]; pH 7.0, room temperature, 48 h): did not detect the degradation
